Test results: PMC7827406, “Structure–Activity Relationship (SAR) Study of Spautin-1 to Entail the Discovery of Novel NEK4 Inhibitors” (International Journal of Molecular Sciences, 2021)
Like-named read-outs stand apart in the source and are kept apart here.

Experiments:
Experiment in all cases: biochemical
Set-up in all cases: Eurofins KinaseProfiler full panel at Km ATP, residual kinase activity (%) relative to DMSO
LIMK1(h) = LIMK1(h) (Homo sapiens, UniProt P53667)
How it was run: (§1)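 Compounds screened at 10 µM in radiometric kinase activity assays at Km ATP, reported as remaining kinase activity (%). A KINOMEscan competition-binding screen at 10 µM measured DNA-tagged kinase retained on immobilized active-site ligand by qPCR.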

Pim-1(h) = target: T1, Pim-1(h) (Homo sapiens, UniProt P11309)
T1 construct: gene PIM1
How it was run: as §1

MARK3(h) = MARK3(h) (Homo sapiens, UniProt P27448)
How it was run: as §1

JNK2α2(h) = target: T2, JNK2α2(h) (Homo sapiens, UniProt P45984)
T2 construct: gene MAPK9; isoform alpha2
How it was run: as §1

CaMKIIβ(h) = target: T3, CaMKIIβ(h) (Homo sapiens, UniProt Q13554)
T3 construct: gene CAMK2B
How it was run: as §1

[1] = target: T4, PI3 Kinase (p110a(E545K)/p85a)(m) (Mus musculus, UniProt P42337, E545K)
T4 construct: gene Pik3ca
How it was run: as §1

GRK1(h) = target: T5, GRK1(h) (Homo sapiens, UniProt Q15835)
T5 sequence (Q15835 1-563): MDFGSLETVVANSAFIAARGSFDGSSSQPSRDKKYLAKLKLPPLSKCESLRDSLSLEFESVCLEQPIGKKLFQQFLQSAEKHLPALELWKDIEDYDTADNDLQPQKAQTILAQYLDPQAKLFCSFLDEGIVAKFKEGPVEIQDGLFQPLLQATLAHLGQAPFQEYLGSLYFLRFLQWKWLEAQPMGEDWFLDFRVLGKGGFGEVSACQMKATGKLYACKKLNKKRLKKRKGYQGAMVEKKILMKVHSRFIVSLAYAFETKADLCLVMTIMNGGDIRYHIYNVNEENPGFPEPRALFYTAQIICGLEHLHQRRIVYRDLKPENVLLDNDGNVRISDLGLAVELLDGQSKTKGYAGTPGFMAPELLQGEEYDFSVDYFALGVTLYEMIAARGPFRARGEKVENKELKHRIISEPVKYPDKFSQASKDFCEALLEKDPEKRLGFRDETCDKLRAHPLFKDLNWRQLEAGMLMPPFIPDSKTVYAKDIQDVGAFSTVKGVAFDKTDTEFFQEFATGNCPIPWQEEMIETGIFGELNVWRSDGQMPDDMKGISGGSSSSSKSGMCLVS
How it was run: as §1

TBK1(h) = target: T6, TBK1(h) (Homo sapiens, UniProt Q9UHD2)
T6 sequence (Q9UHD2 1-729): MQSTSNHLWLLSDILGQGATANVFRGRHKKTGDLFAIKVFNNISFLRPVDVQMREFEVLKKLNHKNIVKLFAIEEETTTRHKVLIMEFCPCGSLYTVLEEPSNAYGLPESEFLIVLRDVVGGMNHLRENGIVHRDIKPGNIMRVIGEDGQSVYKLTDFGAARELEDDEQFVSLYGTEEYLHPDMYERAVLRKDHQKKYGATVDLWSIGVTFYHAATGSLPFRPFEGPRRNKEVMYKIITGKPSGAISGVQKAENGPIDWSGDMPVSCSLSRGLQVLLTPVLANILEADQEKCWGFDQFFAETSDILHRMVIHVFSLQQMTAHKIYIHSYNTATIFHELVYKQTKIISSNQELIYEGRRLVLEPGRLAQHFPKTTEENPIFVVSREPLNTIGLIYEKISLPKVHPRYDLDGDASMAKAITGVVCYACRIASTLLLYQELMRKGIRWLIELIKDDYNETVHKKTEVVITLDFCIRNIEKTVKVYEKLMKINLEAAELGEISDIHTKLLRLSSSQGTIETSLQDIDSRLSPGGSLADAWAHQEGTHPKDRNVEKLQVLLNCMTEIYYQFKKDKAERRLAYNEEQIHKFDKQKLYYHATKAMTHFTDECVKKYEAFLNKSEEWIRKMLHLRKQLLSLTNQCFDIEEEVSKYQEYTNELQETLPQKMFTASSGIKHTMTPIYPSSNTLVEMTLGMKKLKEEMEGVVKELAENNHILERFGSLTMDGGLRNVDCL
How it was run: as §1

CDK17/cyclinY(h) = CDK17/cyclinY(h) (Homo sapiens, UniProt Q00537)
How it was run: as §1

cKit(D816V)(h) = target: T7, cKit(D816V)(h) (Homo sapiens, UniProt P10721, D816V)
T7 construct: gene KIT
How it was run: as §1

Src(T341M)(h) = Src(T341M)(h) (Homo sapiens, UniProt P12931, T341M)
How it was run: as §1

[2] = read-out: Residual activity (%) Spautin-1 5aa
[3] = read-out: Residual activity (%) 5as
[4] = read-out: Residual activity (%) 5at
[5] = read-out: Residual activity (%) 5ay

T4 sequence (P42337 whole entry E545K): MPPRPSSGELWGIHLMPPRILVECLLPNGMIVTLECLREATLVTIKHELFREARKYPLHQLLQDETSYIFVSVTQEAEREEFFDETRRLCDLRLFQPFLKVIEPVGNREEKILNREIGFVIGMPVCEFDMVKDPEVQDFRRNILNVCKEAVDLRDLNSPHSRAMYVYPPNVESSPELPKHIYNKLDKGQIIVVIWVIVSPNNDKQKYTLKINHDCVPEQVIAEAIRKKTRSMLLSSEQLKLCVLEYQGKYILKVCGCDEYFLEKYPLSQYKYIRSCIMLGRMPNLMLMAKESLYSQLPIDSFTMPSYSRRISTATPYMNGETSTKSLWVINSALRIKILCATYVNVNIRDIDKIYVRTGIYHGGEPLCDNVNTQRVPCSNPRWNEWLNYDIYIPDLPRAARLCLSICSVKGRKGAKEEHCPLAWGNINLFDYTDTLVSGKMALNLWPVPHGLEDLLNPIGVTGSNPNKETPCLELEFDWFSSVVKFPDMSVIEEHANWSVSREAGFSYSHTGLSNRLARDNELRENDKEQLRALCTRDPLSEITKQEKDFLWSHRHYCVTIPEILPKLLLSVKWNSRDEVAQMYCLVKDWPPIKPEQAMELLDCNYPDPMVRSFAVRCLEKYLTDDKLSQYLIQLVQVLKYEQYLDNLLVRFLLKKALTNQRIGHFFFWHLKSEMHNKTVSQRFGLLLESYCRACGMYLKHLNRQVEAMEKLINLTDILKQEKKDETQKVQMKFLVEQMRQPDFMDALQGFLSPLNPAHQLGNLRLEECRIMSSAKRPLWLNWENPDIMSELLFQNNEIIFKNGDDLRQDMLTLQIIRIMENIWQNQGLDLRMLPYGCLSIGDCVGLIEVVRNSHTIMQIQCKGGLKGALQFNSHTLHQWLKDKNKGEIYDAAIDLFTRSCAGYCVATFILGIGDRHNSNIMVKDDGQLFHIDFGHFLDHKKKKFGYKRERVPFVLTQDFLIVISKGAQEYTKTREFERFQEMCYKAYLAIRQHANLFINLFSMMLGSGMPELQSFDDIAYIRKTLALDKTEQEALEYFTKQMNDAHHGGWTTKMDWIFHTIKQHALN
T4 sequence (P26450 whole entry partner): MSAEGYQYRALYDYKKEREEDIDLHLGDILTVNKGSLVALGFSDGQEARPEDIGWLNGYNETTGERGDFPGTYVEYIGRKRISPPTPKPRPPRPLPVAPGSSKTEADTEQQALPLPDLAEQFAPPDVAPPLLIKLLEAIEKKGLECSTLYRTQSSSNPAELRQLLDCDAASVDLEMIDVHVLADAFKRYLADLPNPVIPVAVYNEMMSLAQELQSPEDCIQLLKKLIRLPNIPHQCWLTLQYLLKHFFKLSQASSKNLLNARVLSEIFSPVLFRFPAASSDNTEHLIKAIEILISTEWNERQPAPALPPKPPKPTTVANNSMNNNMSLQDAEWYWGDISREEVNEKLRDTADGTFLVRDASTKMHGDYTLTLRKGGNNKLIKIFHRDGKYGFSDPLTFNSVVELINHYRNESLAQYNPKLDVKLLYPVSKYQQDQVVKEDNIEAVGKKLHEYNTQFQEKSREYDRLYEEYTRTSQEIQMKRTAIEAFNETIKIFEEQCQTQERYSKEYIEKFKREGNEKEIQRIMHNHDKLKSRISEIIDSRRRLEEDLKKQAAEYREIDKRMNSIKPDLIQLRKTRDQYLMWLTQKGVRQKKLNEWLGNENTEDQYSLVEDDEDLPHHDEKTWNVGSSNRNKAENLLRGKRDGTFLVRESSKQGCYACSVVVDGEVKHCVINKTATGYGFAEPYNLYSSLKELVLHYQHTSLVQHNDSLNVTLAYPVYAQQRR
Sequence of MARK3(h) (P27448 whole entry): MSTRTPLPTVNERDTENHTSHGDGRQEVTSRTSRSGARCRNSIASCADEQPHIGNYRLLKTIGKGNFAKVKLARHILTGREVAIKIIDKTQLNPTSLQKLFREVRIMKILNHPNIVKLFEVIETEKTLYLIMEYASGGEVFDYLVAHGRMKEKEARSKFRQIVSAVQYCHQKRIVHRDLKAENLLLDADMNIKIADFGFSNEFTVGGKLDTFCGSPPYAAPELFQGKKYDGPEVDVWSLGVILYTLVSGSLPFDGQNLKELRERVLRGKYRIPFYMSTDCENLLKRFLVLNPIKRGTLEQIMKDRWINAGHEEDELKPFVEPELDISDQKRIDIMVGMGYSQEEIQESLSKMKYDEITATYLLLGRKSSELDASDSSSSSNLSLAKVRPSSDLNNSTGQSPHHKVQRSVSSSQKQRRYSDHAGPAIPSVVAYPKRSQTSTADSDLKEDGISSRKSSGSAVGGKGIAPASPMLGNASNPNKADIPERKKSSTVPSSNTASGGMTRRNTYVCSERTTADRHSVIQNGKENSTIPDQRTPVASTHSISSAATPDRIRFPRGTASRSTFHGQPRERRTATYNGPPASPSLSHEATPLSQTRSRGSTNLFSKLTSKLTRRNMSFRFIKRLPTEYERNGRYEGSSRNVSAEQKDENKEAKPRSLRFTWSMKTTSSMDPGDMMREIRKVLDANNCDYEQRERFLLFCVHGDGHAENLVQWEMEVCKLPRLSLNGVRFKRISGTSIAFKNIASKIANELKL
T1 sequence (P11309 whole entry): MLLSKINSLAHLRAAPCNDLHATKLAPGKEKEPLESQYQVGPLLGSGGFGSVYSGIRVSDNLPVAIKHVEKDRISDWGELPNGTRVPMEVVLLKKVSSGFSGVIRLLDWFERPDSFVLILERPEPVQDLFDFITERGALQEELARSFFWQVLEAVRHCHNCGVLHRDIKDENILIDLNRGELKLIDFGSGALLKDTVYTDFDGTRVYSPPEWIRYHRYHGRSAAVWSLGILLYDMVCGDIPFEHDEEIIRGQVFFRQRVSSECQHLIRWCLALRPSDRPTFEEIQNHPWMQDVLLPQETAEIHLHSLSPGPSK
T3 sequence (Q13554 whole entry): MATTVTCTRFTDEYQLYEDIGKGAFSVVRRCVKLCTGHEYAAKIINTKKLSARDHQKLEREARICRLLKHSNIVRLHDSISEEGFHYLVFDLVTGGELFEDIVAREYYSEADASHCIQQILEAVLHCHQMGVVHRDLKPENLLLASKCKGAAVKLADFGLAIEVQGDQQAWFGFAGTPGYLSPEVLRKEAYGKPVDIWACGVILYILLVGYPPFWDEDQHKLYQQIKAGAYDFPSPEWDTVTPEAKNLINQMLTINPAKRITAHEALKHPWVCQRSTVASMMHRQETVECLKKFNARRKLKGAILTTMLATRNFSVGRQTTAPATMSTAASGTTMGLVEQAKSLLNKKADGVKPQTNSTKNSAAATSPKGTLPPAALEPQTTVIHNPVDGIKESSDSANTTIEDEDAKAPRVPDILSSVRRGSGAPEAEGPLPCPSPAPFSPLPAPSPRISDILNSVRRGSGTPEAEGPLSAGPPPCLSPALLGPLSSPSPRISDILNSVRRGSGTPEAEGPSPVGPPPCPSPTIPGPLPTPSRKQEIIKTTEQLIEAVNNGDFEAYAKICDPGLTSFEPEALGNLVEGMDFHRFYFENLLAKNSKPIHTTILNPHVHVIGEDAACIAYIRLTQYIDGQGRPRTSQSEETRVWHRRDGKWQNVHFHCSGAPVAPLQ
Sequence of LIMK1(h) (P53667 whole entry): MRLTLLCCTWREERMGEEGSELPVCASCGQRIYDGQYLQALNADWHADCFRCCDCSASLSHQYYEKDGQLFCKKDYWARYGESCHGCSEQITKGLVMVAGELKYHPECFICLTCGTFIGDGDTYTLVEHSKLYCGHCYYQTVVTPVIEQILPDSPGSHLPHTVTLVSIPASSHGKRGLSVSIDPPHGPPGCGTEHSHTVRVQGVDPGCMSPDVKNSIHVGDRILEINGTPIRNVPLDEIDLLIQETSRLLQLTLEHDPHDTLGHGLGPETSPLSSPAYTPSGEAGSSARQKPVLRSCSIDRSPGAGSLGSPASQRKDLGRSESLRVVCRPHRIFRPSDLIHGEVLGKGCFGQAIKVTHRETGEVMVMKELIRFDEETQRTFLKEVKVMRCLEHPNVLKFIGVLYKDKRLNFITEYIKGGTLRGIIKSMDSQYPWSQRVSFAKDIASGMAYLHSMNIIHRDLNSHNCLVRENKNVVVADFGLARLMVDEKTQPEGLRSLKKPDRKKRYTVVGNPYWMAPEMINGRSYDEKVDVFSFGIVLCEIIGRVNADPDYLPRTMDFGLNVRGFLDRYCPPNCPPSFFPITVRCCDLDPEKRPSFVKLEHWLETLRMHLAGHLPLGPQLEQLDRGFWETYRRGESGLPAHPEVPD
T2 sequence (P45984 whole entry, canonical isoform): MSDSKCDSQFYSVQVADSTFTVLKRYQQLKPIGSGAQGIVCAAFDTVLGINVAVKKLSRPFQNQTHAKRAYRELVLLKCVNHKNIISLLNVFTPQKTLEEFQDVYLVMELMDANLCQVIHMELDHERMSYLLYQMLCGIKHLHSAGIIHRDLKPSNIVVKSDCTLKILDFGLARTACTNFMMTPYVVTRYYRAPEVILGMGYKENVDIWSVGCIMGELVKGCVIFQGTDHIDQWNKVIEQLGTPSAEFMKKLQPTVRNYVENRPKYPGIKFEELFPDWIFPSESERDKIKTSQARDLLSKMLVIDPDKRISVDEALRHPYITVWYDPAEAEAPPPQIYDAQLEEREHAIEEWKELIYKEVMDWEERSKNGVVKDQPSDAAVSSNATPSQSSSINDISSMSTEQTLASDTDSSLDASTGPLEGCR

Compound: Fc1ccc(CNc2ncnc3ccc(F)cc23)cc1 [5aa, 6-Fluoro-N-(4-fluorobenzyl)-4-Quinazolinamine]
- remaining activity at 10 µM (LIMK1(h); [2]): 97%
- remaining activity at 10 µM (Pim-1(h); [2]): 66%
- remaining activity at 10 µM (MARK3(h); [2]): 95%
- remaining activity at 10 µM (JNK2α2(h); [2]): 89%
- remaining activity at 10 µM (CaMKIIβ(h); [2]): 81%
- remaining activity at 10 µM [1, 2]: 94%
- remaining activity at 10 µM (GRK1(h); [2]): 101%
- remaining activity at 10 µM (TBK1(h); [2]): 126%
- remaining activity at 10 µM (CDK17/cyclinY(h); [2]): 82%
- remaining activity at 10 µM (cKit(D816V)(h); [2]): 105%
- remaining activity at 10 µM (Src(T341M)(h); [2]): 94%

Compound: Fc1ccc(CCNc2ncnc3ccc(F)cc23)cc1 [5as, 6-Fluoro-N-[2-(4-Fluorophenyl)Ethyl]-4-Quinazolinamine]
- remaining activity at 10 µM (LIMK1(h); [3]): 76%
- remaining activity at 10 µM (Pim-1(h); [3]): 73%
- remaining activity at 10 µM (MARK3(h); [3]): 87%
- remaining activity at 10 µM (JNK2α2(h); [3]): 78%
- remaining activity at 10 µM (CaMKIIβ(h); [3]): 91%
- remaining activity at 10 µM [1, 3]: 91%
- remaining activity at 10 µM (GRK1(h); [3]): 79%
- remaining activity at 10 µM (TBK1(h); [3]): 108%
- remaining activity at 10 µM (CDK17/cyclinY(h); [3]): 80%
- remaining activity at 10 µM (cKit(D816V)(h); [3]): 111%
- remaining activity at 10 µM (Src(T341M)(h); [3]): 103%

Compound: Fc1ccc2ncnc(NCCc3ccc(Cl)cc3)c2c1 [5at, N-[2-(4-Chlorophenyl)Ethyl]-6-Fluoro-4-Quinazolinamine]
- remaining activity at 10 µM (LIMK1(h); [4]): 72%
- remaining activity at 10 µM (Pim-1(h); [4]): 70%
- remaining activity at 10 µM (MARK3(h); [4]): 85%
- remaining activity at 10 µM (JNK2α2(h); [4]): 88%
- remaining activity at 10 µM (CaMKIIβ(h); [4]): 91%
- remaining activity at 10 µM [1, 4]: 91%
- remaining activity at 10 µM (GRK1(h); [4]): 81%
- remaining activity at 10 µM (TBK1(h); [4]): 108%
- remaining activity at 10 µM (CDK17/cyclinY(h); [4]): 88%
- remaining activity at 10 µM (cKit(D816V)(h); [4]): 98%
- remaining activity at 10 µM (Src(T341M)(h); [4]): 83%

Compound: COc1ccc2ncnc(Nc3cccc(F)c3)c2c1 [5ay, N-(3-Fluorophenyl)-6-Methoxy-4-Quinazolinamine]
- remaining activity at 10 µM (LIMK1(h); [5]): 64%
- remaining activity at 10 µM (Pim-1(h); [5]): 39%
- remaining activity at 10 µM (MARK3(h); [5]): 89%
- remaining activity at 10 µM (JNK2α2(h); [5]): 82%
- remaining activity at 10 µM (CaMKIIβ(h); [5]): 72%
- remaining activity at 10 µM [1, 5]: 91%
- remaining activity at 10 µM (GRK1(h); [5]): 88%
- remaining activity at 10 µM (TBK1(h); [5]): 117%
- remaining activity at 10 µM (CDK17/cyclinY(h); [5]): 74%
- remaining activity at 10 µM (cKit(D816V)(h); [5]): 125%
- remaining activity at 10 µM (Src(T341M)(h); [5]): 96%
